According to patent US8017792B2, “1-thio-D-glucitol derivatives” (Taisho Pharmaceutical Co., Ltd., priority 2005, dated 2011):
Counter-ions that a name gives are not always drawn.

Columns and labels:
Human SGLT2 = biological target: T1, Human SGLT2 (Homo sapiens, UniProt P31639); test: Sodium-dependent sugar uptake inhibition test in CHO-K1 cells stably expressing human SGLT2 (Test Example 2); assay type: cell-based; conditions: for IC50: CHO-K1 cells, [14C]methyl-α-D-glucopyranoside 1 mM, 37° C., one hour; for SGLT1/SGLT2: ratio of IC50 human SGLT1 to IC50 human SGLT2
T1 construct: expressed in transfected cells; host or cells: CHO-K1
T1 sequence (P31639 1-672): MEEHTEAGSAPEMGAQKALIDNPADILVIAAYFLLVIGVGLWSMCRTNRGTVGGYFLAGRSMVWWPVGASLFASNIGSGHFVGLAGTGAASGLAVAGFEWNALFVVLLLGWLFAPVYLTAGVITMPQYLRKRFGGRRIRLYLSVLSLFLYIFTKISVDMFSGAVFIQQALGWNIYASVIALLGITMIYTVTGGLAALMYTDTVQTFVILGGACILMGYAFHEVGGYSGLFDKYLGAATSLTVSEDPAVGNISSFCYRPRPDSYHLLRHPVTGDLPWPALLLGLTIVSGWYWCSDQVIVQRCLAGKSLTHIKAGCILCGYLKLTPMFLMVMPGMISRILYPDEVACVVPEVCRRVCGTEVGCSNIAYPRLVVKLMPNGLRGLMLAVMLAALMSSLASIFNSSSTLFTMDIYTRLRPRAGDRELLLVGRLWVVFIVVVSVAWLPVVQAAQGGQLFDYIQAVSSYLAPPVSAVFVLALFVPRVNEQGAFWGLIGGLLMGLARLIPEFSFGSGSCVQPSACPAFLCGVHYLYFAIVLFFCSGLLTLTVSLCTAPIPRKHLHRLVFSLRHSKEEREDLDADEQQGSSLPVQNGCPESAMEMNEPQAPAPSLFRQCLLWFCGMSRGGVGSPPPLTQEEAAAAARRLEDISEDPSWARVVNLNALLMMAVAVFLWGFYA
Procedure: (§1) Human SGLT1 sequence (NM_000343) was reverse-transcripted from human small intestinal mRNA, then amplified, and then introduced into pCMV-tag5A from Stratagene Corporation. Human SGLT2 sequence (NM_003041) was prepared from human nephric mRNA as with the above method, and then introduced into pcDNA3.1+hygro from Invitrogen Corporation. Each cloned sequence was confirmed to be identical with the reported sequence.
(§2) CHO-K1 cells were transfected with the human SGLT1 and human SGLT2 expression vectors using Lipofectamine 2000 (Invitrogen Corporation). SGLT expression cells were cultured in the presence of geneticin (SGLT1) or hygromycin B (SGLT2) of the concentration of 500 μg/mL to select resistant strains. Cells were obtained using sugar uptake specific activity as an index in the following system.
(§3) Cells stably expressing human SGLT1 and human SGLT2 were used in the sodium-dependent sugar uptake activity inhibition test. Cells were incubated in 1 mL of a pretreatment buffer solution (140 mM choline chloride, 2 mM KCl, 1 mM CaCl2, 1 mM MgCl2, 10 mM HEPES/5 mM Tris, pH 7.4) for 20 minutes. The pretreatment buffer solution was removed and 200 μL of an uptake buffer containing test compounds (methyl-α-D-glucopyranoside containing [^14C]methyl-α-D-glucopyranoside (0.1 mM for SGLT1 inhibition, 1 mM for SGLT2 inhibition), 140 mM NaCl, 2 mM KCl, 1 mM CaCl2, 1 mM MgCl2, 10 mM HEPES/5 mM Tris, pH 7.4) were added, and uptake reaction was performed at 37° C. for 30 minutes (SGLT1) or for one hour (SGLT2). After the reaction, cells were washed with 1 mL of a washing buffer (10 mM methyl-α-D-glucopyranoside, 140 mM choline chloride, 2 mM KCl, 1 mM CaCl2, 1 mM MgCl2, 10 mM HEPES/5 mM Tris, pH 7.4) twice and dissolved in 400 μL of 0.2 M NaOH solution. After Aquazole 2 (Perkin Elmer Corporation) was added and mixed well, radioactivity was measured with a liquid scintillation counter (Beckman Coulter Corporation). A buffer for uptake which contained no test compound was prepared as a control group. Another buffer solution for uptake containing choline chloride in place of NaCl was also prepared for basic uptake.

Human SGLT1 = biological target: T2, Human SGLT1 (Homo sapiens, UniProt P13866); test: Sodium-dependent sugar uptake inhibition test in CHO-K1 cells stably expressing human SGLT1 (Test Example 2); assay type: cell-based; conditions: [14C]methyl-α-D-glucopyranoside 0.1 mM, 37° C., 30 minutes
T2 construct: expressed in transfected cells; host or cells: CHO-K1
T2 sequence (P13866 1-664): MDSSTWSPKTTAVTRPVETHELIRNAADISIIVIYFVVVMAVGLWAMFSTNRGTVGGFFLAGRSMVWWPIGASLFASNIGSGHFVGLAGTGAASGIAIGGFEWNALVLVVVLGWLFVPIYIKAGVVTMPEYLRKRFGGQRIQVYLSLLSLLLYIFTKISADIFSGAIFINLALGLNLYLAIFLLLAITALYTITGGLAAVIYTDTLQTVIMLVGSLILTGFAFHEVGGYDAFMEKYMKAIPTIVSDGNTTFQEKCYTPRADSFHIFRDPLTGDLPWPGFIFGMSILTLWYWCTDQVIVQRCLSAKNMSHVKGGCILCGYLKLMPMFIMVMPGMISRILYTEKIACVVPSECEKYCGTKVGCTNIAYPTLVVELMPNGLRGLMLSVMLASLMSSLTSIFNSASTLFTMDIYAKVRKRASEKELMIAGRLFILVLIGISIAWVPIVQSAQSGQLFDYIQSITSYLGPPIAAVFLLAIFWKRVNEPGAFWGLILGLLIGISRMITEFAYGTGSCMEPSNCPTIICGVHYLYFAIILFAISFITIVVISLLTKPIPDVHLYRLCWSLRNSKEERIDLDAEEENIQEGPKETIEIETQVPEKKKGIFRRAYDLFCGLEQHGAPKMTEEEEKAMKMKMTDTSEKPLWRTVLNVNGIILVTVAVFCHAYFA
Procedure: as §1, §2, §3

melting point	IC50 (Human SGLT2)	SGLT1/SGLT2 (Human SGLT2)	IC50 (Human SGLT1)	SMILES
100 to 102.5 °C				CCc1ccc(Cc2cccc([C@@H]3S[C@H](COCc4ccccc4)[C@@H](OCc4ccccc4)[C@H](OCc4ccccc4)[C@H]3OCc3ccccc3)c2)cc1 [Compound 1, (1S)-1,5-anhydro-2,3,4,6-tetra-O-benzyl-1-[3-(4-ethylbenzyl)phenyl]-1-thio-D-glucitol]
140 to 143 °C				Clc1ccc([C@@H]2S[C@H](COCc3ccccc3)[C@@H](OCc3ccccc3)[C@H](OCc3ccccc3)[C@H]2OCc2ccccc2)cc1Cc1cc2ccccc2s1 [Compound 57]
73 to 81 °C	170 nM	12.5	2100 nM	CCOc1ccc(Cc2cc([C@@H]3S[C@H](CO)[C@@H](O)[C@H](O)[C@H]3O)ccc2Cl)cc1F [Compound 84, (1S)-1,5-Anhydro-1-[4-chloro-3-(3-fluoro-4-ethoxybenzyl)phenyl]-1-thio-D-glucitol]
	890 nM	4.7	4100 nM	COc1cc(OC)c([C@@H]2S[C@H](CO)[C@@H](O)[C@H](O)[C@H]2O)cc1Cc1cc2ccccc2s1 [Compound 131, (1S)-1,5-Anhydro-1-[3-[(1-benzothien-2-yl)methyl]-4,6-dimethoxyphenyl]-1-thio-D-glucitol]

More lines, now with the values behind:

SMILES	melting point	IC50 (Human SGLT2)	SGLT1/SGLT2 (Human SGLT2)	IC50 (Human SGLT1)
CCOc1ccc(Cc2cc([C@@H]3S[C@H](CO)[C@@H](O)[C@H](O)[C@H]3O)c(OC)cc2Cl)cc1 (as salt: Na) [Compound 99, (1S)-1,5-anhydro-1-[4-chloro-5-(4-ethoxybenzyl)-2-methoxyphenyl]-1-thio-D-glucitol]	177 to 179 °C			
CCOc1ccc(Cc2cc([C@@H]3S[C@H](COCc4ccccc4)[C@@H](OCc4ccccc4)[C@H](OCc4ccccc4)[C@H]3OCc3ccccc3)ccc2Cl)cc1 [Compound 3]	126 to 128 °C			
COc1ccc([C@@H]2S[C@H](COCc3ccccc3)[C@@H](OCc3ccccc3)[C@H](OCc3ccccc3)[C@H]2OCc2ccccc2)cc1Cc1cc2ccccc2s1 [Compound 56]	133 to 135 °C			
CCOc1cc(F)c(Cc2cc([C@@H]3S[C@H](CO)[C@@H](O)[C@H](O)[C@H]3O)ccc2Cl)cc1F [Compound 83, (1S)-1,5-Anhydro-1-[4-chloro-3-(2,5-difluoro-4-ethoxybenzyl)phenyl]-1-thio-D-glucitol]	72 to 76 °C	30 nM	48.7	1500 nM
CCc1ccc(Cc2cc([C@@H]3S[C@H](CO)[C@@H](O)[C@H](O)[C@H]3O)c(OC)cc2Cl)cc1 [Compound 102, (1S)-1,5-Anhydro-1-[4-chloro-3-(4-ethylbenzyl)-6-methoxyphenyl]-1-thio-D-glucitol]		40 nM	86.6	3500 nM
COc1cc(Cl)c(Cc2ccc(C(C)C)cc2)cc1[C@@H]1S[C@H](CO)[C@@H](O)[C@H](O)[C@H]1O [Compound 103, (1S)-1,5-Anhydro-1-[4-chloro-3-(4-isopropylbenzyl)-6-methoxyphenyl]-1-thio-D-glucitol]		69 nM	347.9	23900 nM
COc1cc(C)c(Cc2ccc(C)cc2)cc1[C@@H]1S[C@H](CO)[C@@H](O)[C@H](O)[C@H]1O [Compound 104, (1S)-1,5-Anhydro-1-[3-(4-methylbenzyl)-6-methoxy-4-methylphenyl]-1-thio-D-glucitol]		34 nM	29.8	1000 nM
COc1cc(C)c(Cc2ccc(C(C)C)cc2)cc1[C@@H]1S[C@H](CO)[C@@H](O)[C@H](O)[C@H]1O [Compound 105, (1S)-1,5-Anhydro-1-[3-(4-isopropylbenzyl)-6-methoxy-4-methylphenyl]-1-thio-D-glucitol]		93 nM	182.5	17000 nM
OC[C@H]1S[C@@H](c2ccc(Cl)c(Cc3cc4ccccc4o3)c2)[C@H](O)[C@@H](O)[C@@H]1O [Compound 132, (1S)-1,5-Anhydro-1-[3-[(1-benzofuran-2-yl)methyl]-4-chlorophenyl]-1-thio-D-glucitol]		497 nM	8.9	4400 nM
